target: T1, ERR1 (also known as ERR-α or ERR-1) (Homo sapiens, UniProt P11474); test: TR-FRET assay (disruption of co-activator peptide binding to ERR1 LBD); assay type: biochemical; settings: 6 nM 6His-ERR1LBD, 6 nM GST-SRC-2 peptide; average of 3 independent experiments
T1 sequence (P11474 193-421 limits assumed): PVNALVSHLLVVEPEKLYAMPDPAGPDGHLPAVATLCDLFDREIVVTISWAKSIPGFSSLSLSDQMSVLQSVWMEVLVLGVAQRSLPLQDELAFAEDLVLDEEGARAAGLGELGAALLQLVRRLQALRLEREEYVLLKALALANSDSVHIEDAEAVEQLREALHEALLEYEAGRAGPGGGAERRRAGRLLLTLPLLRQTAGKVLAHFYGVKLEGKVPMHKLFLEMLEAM
Procedure, shortened: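 His-tagged ERR1 ligand-binding domain and GST-labelled SRC-2 peptide, each 6 nM, equilibrated at 25° C for 4-18 h in Tris pH 8/Hepes/KCl/DTT/delipidated BSA buffer. Compound-induced loss of co-activator binding read as Eu cryptate→XL665 energy transfer; values from hyperbolic curve fits averaged over 3 independent runs.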

Row | EC50 | SMILES
1 | 133 nM | O=C(NC1(CN2C(=O)S/C(=C\c3ccc4c(cnn4Cc4ccc(C(F)(F)F)cc4C(F)(F)F)c3)C2=O)CCOCC1)C1CC1 [Compound 311, N-(4-{[(5Z)-5-({1-[2,4-Bis(trifluoromethyl)benzyl]-1H-indazol-5-yl}methylidene)-2,4-dioxo-1,3-thiazolidin-3-yl]methyl}tetrahydro-2H-pyran-4-yl) cyclopropanecarboxamide]
2 | 65 nM | NC1(CCN2C(=O)S/C(=C\c3ccc4c(cnn4Cc4ccc(Cl)cc4C(F)(F)F)c3)C2=O)CCOCC1 [Compound 312, (5Z)-3-[2-(4-Aminotetrahydro-2H-pyran-4-yl)ethyl]-5-({1-[4-chloro-2-(trifluoromethyl)benzyl]-1H-indazol-5-yl}methylidene)-1,3-thiazolidine-2,4-dione]
3 | 700 nM | NC1(CCN2C(=O)S/C(=C\c3ccc4c(cnn4Cc4ccc(C(F)(F)F)cc4C(F)(F)F)c3)C2=O)CCOCC1 [Compound 313, (5Z)-3-[2-(4-Aminotetrahydro-2H-pyran-4-yl)ethyl]-5-({1-[2,4-bis(trifluoromethyl)benzyl]-1H-indazol-5-yl}methylidene)-1,3-thiazolidine-2,4-dione]
4 | 830 nM | NC1(CN2C(=O)S/C(=C\c3ccc4c(cnn4Cc4ccc(Cl)cc4C(F)(F)F)c3)C2=O)CCC1 [Compound 314, (5Z)-3-[(1-Aminocyclobutyl)methyl]-5-({1-[4-chloro-2-(trifluoromethyl)benzyl]-1H-indazol-5-yl}methylidene)-1,3-thiazolidine-2,4-dione]
5 | 71 nM | CN(C)C1(CN2C(=O)S/C(=C\c3ccc4c(cnn4Cc4ccc(Cl)cc4C(F)(F)F)c3)C2=O)CCC1 [Compound 315, (5Z)-5-({1-[4-Chloro-2-(trifluoromethyl)benzyl]-1H-indazol-5-yl}methylidene)-3-{[1-(dimethylamino)cyclobutyl]methyl}-1,3-thiazolidine-2,4-dione]
6 | 47 nM | O=C1S/C(=C\c2ccc3c(cnn3Cc3ccc(Cl)cc3C(F)(F)F)c2)C(=O)N1CCN1CCNS1(=O)=O [Compound 337, (5Z)-5-({1-[4-Chloro-2-(trifluoromethyl)benzyl]-1H-indazol-5-yl}methylidene)-3-[2-(1,1-dioxido-1,2,5-thiadiazolidin-2-yl)ethyl]-1,3-thiazolidine-2,4-dione]
7 | 106 nM | COC(=O)N1CCN(CCN2C(=O)S/C(=C\c3ccc4c(cnn4Cc4ccc(Cl)cc4C(F)(F)F)c3)C2=O)S1(=O)=O [Compound 339, Methyl 5-{2-[(5Z)-5-({1-[4-chloro-2-(trifluoromethyl)benzyl]-1H-indazol-5-yl}methylidene)-2,4-dioxo-1,3-thiazolidin-3-yl]ethyl}-1,2,5-thiadiazolidine-2-carboxylate 1,1-dioxide]
8 | 53 nM | COC(=O)N1CCN(C(=O)CN2C(=O)S/C(=C\c3ccc4c(cnn4Cc4ccc(Cl)cc4C(F)(F)F)c3)C2=O)S1(=O)=O [Compound 340, Methyl 5-{[(5Z)-5-({1-[4-chloro-2-(trifluoromethyl)benzyl]-1H-indazol-5-yl}methylidene)-2,4-dioxo-1,3-thiazolidin-3-yl]acetyl}-1,2,5-thiadiazolidine-2-carboxylate 1,1-dioxide]
9 | 39 nM | O=C1CNCCC1N1C(=O)S/C(=C\c2ccc3c(cnn3Cc3ccc(Cl)cc3C(F)(F)F)c2)C1=O (stereo not shown) [Compound 341, (5Z)-5-({1-[4-Chloro-2-(trifluoromethyl)benzyl]-1H-indazol-5-yl}methylidene)-3-(3-oxopiperidin-4-yl)-1,3-thiazolidine-2,4-dione]
10 | 65 nM | CN1CCC(N2C(=O)S/C(=C\c3ccc4c(cnn4Cc4ccc(Cl)cc4C(F)(F)F)c3)C2=O)C(=O)C1 (stereo not shown) [Compound 342, (5Z)-5-({1-[4-Chloro-2-(trifluoromethyl)benzyl]-1H-indazol-5-yl}methylidene)-3-(1-methyl-3-oxopiperidin-4-yl)-1,3-thiazolidine-2,4-dione]
11 | 27 nM | O=C1CCNCC1N1C(=O)S/C(=C\c2ccc3c(cnn3Cc3ccc(Cl)cc3C(F)(F)F)c2)C1=O (stereo not shown) [Compound 343, (5Z)-5-({1-[4-Chloro-2-(trifluoromethyl)benzyl]-1H-indazol-5-yl}methylidene)-3-(4-oxopiperidin-3-yl)-1,3-thiazolidine-2,4-dione]
12 | 40 nM | CN1CCC(=O)C(N2C(=O)S/C(=C\c3ccc4c(cnn4Cc4ccc(Cl)cc4C(F)(F)F)c3)C2=O)C1 (stereo not shown) [Compound 344, (5Z)-5-({1-[4-Chloro-2-(trifluoromethyl)benzyl]-1H-indazol-5-yl}methylidene)-3-(1-methyl-4-oxopiperidin-3-yl)-1,3-thiazolidine-2,4-dione]
13 | 18 nM | O=C1S/C(=C\c2ccc3c(cnn3Cc3ccc(Cl)cc3C(F)(F)F)c2)C(=O)N1C1CCNCC1(F)F (stereo not shown) [Compound 345, (5Z)-5-({1-[4-Chloro-2-(trifluoromethyl)benzyl]-1H-indazol-5-yl}methylidene)-3-(3,3-difluoropiperidin-4-yl)-1,3-thiazolidine-2,4-dione]

Second part, the compound before the results:

Row | SMILES | EC50
14 | NC(=O)CN1CC[C@@H](CN2C(=O)S/C(=C\c3ccc4c(cnn4Cc4ccc(Cl)cc4C(F)(F)F)c3)C2=O)C1 [Compound 299, 2-[(3R)-3-{[(5Z)-5-({1-[4-Chloro-2-(trifluoromethyl)benzyl]-1H-indazol-5-yl}methylidene)-2,4-dioxo-1,3-thiazolidin-3-yl]methyl}pyrrolidin-1-yl]acetamide] | 37 nM
15 | O=C1S/C(=C\c2ccc3c(c2)c(Cl)nn3Cc2ccc(Cl)cc2C(F)(F)F)C(=O)N1CCN1CCCC1 [Compound 300, (5Z)-5-({3-Chloro-1-[4-chloro-2-(trifluoromethyl)benzyl]-1H-indazol-5-yl}methylidene)-3-(2-pyrrolidin-1-ylethyl)-1,3-thiazolidine-2,4-dione] | 7 nM
16 | CN1CCC[C@H]1CN1C(=O)S/C(=C\c2ccc3c(c2)c(Cl)nn3Cc2ccc(Cl)cc2C(F)(F)F)C1=O [Compound 301, (5Z)-5-({3-Chloro-1-[4-chloro-2-(trifluoromethyl)benzyl]-1H-indazol-5-yl}methylidene)-3-{[(2S)-1-methylpyrrolidin-2-yl]methyl}-1,3-thiazolidine-2,4-dione] | 15 nM
17 | O=C(O)C1CCC(N2C(=O)S/C(=C\c3ccc4c(c3)c(Cl)nn4Cc3ccc(Cl)cc3C(F)(F)F)C2=O)CC1 (stereo not shown) [Compound 302, 4-[(5Z)-5-({3-Chloro-1-[4-chloro-2-(trifluoromethyl)benzyl]-1H-indazol-5-yl}methylidene)-2,4-dioxo-1,3-thiazolidin-3-yl] cyclohexanecarboxylic acid] | 2 nM
18 | O=C1S/C(=C\c2ccc3c(cnn3Cc3ccc(Cl)cc3C(F)(F)F)c2)C(=O)N1CC1(F)CCNCC1 [Compound 303, (5Z)-5-({1-[4-Chloro-2-(trifluoromethyl)benzyl]-1H-indazol-5-yl}methylidene)-3-[(4-fluoropiperidin-4-yl)methyl]-1,3-thiazolidine-2,4-dione] | 26 nM
19 | CN1CCC(F)(CN2C(=O)S/C(=C\c3ccc4c(cnn4Cc4ccc(Cl)cc4C(F)(F)F)c3)C2=O)CC1 [Compound 304, (5Z)-5-({1-[4-Chloro-2-(trifluoromethyl)benzyl]-1H-indazol-5-yl}methylidene)-3-[(4-fluoro-1-methylpiperidin-4-yl)methyl]-1,3-thiazolidine-2,4-dione] | 7 nM
20 | O=C1S/C(=C\c2ccc3c(cnn3Cc3ccc(Cl)cc3C(F)(F)F)c2)C(=O)N1CC1(F)CCN(CCO)CC1 [Compound 305, (5Z)-5-({1-[4-Chloro-2-(trifluoromethyl)benzyl]-1H-indazol-5-yl}methylidene)-3-{[4-fluoro-1-(2-hydroxyethyl)piperidin-4-yl]methyl}-1,3-thiazolidine-2,4-dione] | 3 nM
21 | CCN1CCC(F)(CN2C(=O)S/C(=C\c3ccc4c(cnn4Cc4ccc(Cl)cc4C(F)(F)F)c3)C2=O)CC1 [Compound 306, (5Z)-5-({1-[4-Chloro-2-(trifluoromethyl)benzyl]-1H-indazol-5-yl}methylidene)-3-[(1-ethyl-4-fluoropiperidin-4-yl)methyl]-1,3-thiazolidine-2,4-dione] | 71 nM
22 | [2H]C([2H])([2H])N1CCC(F)(CN2C(=O)S/C(=C\c3ccc4c(cnn4Cc4ccc(Cl)cc4C(F)(F)F)c3)C2=O)CC1 [Compound 307, (5Z)-5-({1-[4-Chloro-2-(trifluoromethyl)benzyl]-1H-indazol-5-yl}methylidene)-3-{[4-fluoro-1-(^2H3)methylpiperidin-4-yl]methyl}-1,3-thiazolidine-2,4-dione] | 210 nM
23 | NC1(CN2C(=O)S/C(=C\c3ccc4c(cnn4Cc4ccc(Cl)cc4C(F)(F)F)c3)C2=O)CCOCC1 [Compound 308, (5Z)-3-[(4-Aminotetrahydro-2H-pyran-4-yl)methyl]-5-({1-[4-chloro-2-(trifluoromethyl)benzyl]-1H-indazol-5-yl}methylidene)-1,3-thiazolidine-2,4-dione] | 5 nM
24 | COC(=O)NC1(CN2C(=O)S/C(=C\c3ccc4c(cnn4Cc4ccc(Cl)cc4C(F)(F)F)c3)C2=O)CCOCC1 [Compound 309, Methyl (4-{[(5Z)-5-({1-[4-chloro-2-(trifluoromethyl)benzyl]-1H-indazol-5-yl}methylidene)-2,4-dioxo-1,3-thiazolidin-3-yl]methyl}tetrahydro-2H-pyran-4-yl)carbamate] | 15 nM
25 | NC1(CN2C(=O)S/C(=C\c3ccc4c(cnn4Cc4ccc(C(F)(F)F)cc4C(F)(F)F)c3)C2=O)CCOCC1 [Compound 310, (5Z)-3-[(4-Aminotetrahydro-2H-pyran-4-yl)methyl]-5-({1-[2,4-bis(trifluoromethyl)benzyl]-1H-indazol-5-yl}methylidene)-1,3-thiazolidine-2,4-dione] | 86 nM
